Experimental data taken from patent publication US11970456B1, “Synthesis of thiosemicarbazide analogue as inhibitor of tyrosinase, skin hyperpigmentation, and fruit and/or vegetable browning” (KING SAUD UNIVERSITY, priority 2023, dated 2024).
Entries after “also recorded” stand apart in the source; their conditions may differ.

Key:
[1] = test system: T1, mushroom tyrosinase (EC 1.14.18.1); experiment: Tyrosinase inhibition assay and kinetics (o-diphenolase activity, L-DOPA substrate); assay type: biochemical, Agaricus bisporus (mushroom); conditions: for Type of inhibition: Lineweaver-Burk and Dixon plots
T1 construct: 22 U of mushroom tyrosinase (EC 1.14.18.1)
Protocol: The assay mixture contained sodium phosphate buffer (50 mM; pH 6.8), 22 U of mushroom tyrosinase (EC 1.14.18.1; Sigma Chemical Co., St. Louis, USA), L-DOPA substrate (1 mM), and Compound 2 dissolved in DMSO. The final concentration of DMSO in the assay mixture was 0.5%. The o-diphenolase inhibitory activity of Compound 2 was first screened at a final concentration of 30 μM using Ultrospec 2100 pro spectrophotometer (Amersham Biosciences, UK).
The kinetic assays included a range of substrate (0.25-2.0 mM) and Compound 2 concentrations (0.25, 0.5, 1.0, 2.0 μM). The […] was first incubated with the […] for 15 min. at 25° C. followed by addition of substrate. The reaction was continuously monitored in the spectrophotometer and the enzyme velocity was measured from the linear portion of the curve (7). The kinetics data were analyzed by Grafit 7.0.3 software (Erithacus Software Ltd., Staines, UK) utilizing the Lineweaver Burk plot {1/v versus 1/[S]} and the Ki values were calculated using the Dixon plot {1/v versus [I]}.

melting point [°C] | fold more potent than kojic acid (by Ki) ([1]; Ki of kojic acid versus Ki of the compound) [fold] | IC50 ([1]; o-diphenolase activity, L-DOPA substrate, 25° C., pH 6.8, read-out: IC50 (μM ± SEM)) [µM] | Ki ([1]; o-diphenolase activity, L-DOPA substrate, Dixon plot, 25° C., pH 6.8, read-out: Ki (μM ± SEM)) [µM] | Structure (SMILES) | Type of inhibition [1]
258 to 262 | 52 | 0.228 | 0.0843 | NC(=S)N/N=C/c1ccc2[nH]ncc2c1 [Compound 2, 2-((1H-indazol-5-yl)methylene)hydrazinecarbothioamide] | competitive inhibitor; also recorded: competitive inhibition
– | – | – | – | O=c1cc(CO)occ1O [Kojic acid, kojic acid, reference compound] | Competitive
